Laboratory results reported in BindingDB's records for doi:10.1016/j.jmb.2007.01.004 (Astex Therapeutics, 2007).

Molecular target: cAMP-dependent protein kinase catalytic subunit alpha (Bos taurus, UniProt P00517)
Assay: PKA In Vitro Enzyme Assay
Conditions: pH 7.2; 22 °C
Experimental: The recombinant alpha catalytic subunit of bovine PKA was assayed with a peptide substrate and test compound in the presence of 40 uM ATP/ [gamma-33P]ATP in 96-well plates. […] IC50 values were determined from an eight-point concentration range run in duplicate and calculated in GraphPad Prism 4.00.

SMILES: Cc1n[nH]c2ccc(-c3cncc(OC[C@@H](N)Cc4c[nH]c5ccccc45)c3)cc12 [5-{5-[(2S)-2-amino-3-(1H-indol-3-yl)propoxy]pyridin-3-yl}-3-methyl-1H-indazole]
- IC50: 27 nM
